Results taken from patent US20240108740A1, “THERAPEUTIC COMPOSITIONS INCLUDING SPN10 AND USES THEREOF” (Stealth BioTherapeutics Inc., priority 2022, published 2024).
Residues, ends and D or L forms follow the SMILES beside them.

Tests used:
[1] = test system: Guinea pig hearts; assay: Example 14: ischemia-reperfusion-induced myocardial stunning
Description: Guinea pig hearts will be rapidly isolated, and the aorta will be cannulated in situ and perfused in a retrograde fashion with an oxygenated Krebs-Henseleit at constant pressure (40 cm H2O). Contractile force will be measured with a small hook inserted into the apex of the left ventricle and a silk ligature connected to a force-displacement transducer. Coronary flow will be measured by timing the collection of pulmonary artery effluent.
Hearts will be perfused with peptide conjugates (1-100 nM); aromatic-cationic peptides (an equivalent molar dose of aromatic-cationic peptide based on the concentration of the aromatic-cationic peptide administered in the peptide conjugate treatment group); SPN10(s) (an equivalent molar dose of SPN10 based on the concentration of SPN10 administered in the peptide conjugate treatment group); or SPN10(s) in combination with aromatic-cationic peptides (e.g., an equivalent molar dose of SPN10 based on the concentration of SPN10 administered in the peptide conjugate treatment group and an equivalent molar dose of aromatic-cationic peptide based on the concentration of aromatic-cationic peptide administered in the peptide conjugate treatment group) for 30 minutes and then subjected to 30 minutes of global ischemia. Reperfusion will […] be performed using perfusion buffer lacking both peptide conjugates and SPN10(s) (with or without aromatic-cationic peptides).

[2] = test system: N2A cells; assay: Example 26: mitochondrial membrane potential and ROS accumulation after t-BHP (TMRM, DCF); assay type: cell-based; conditions: 0.1 mM t-BHP, 6 hours
Description: N2A cells cultured in a glass dish will be treated with 0.1 mM t-BHP alone or in the presence of peptide conjugates (1 nM); aromatic-cationic peptides (an equivalent molar dose of aromatic-cationic peptide based on the concentration of the aromatic-cationic peptide administered in the peptide conjugate treatment group); SPN10(s) (an equivalent molar dose of SPN10 based on the concentration of SPN10 administered in the peptide conjugate treatment group) or SPN10(s) in combination with aromatic-cationic peptides (e.g., an equivalent molar dose of SPN10 based on the concentration of SPN10 administered in the peptide conjugate treatment group and an equivalent molar dose of aromatic-cationic peptide based on the concentration of aromatic-cationic peptide administered in the peptide conjugate treatment group) for 6 hours. Cells will then be loaded with 10 μM dichlorofluorescin (DCF) (ex/em=485/530) for 30 minutes at 37° C., 5% CO2. Cells will be washed 3 times with HBSS, stained with 20 nM of Mitotracker TMRM (ex/em=550/575 nm) for 15 minutes at 37° C., and examined by confocal laser scanning microscopy.

[3] = test system: animal models of ALF; assay: Example 44: animal models of acute liver failure (ALF); conditions: in vivo
Description: Suitable animal models of ALF utilize surgical procedures, toxic liver injury, or a combination thereof. See Belanger & Butterworth, Metabolic Brain Disease, 20:409-423 (2005). Peptide conjugates, aromatic-cationic peptides, SPN10(s) with or without aromatic-cationic peptides or control vehicle will be administered prior to or simultaneously with a toxic or surgical insult. Hepatic function will be assessed by measuring serum hepatic enzymes (transaminases, alkaline phosphatase), serum bilirubin, serum ammonia, serum glucose, serum lactate, or serum creatinine. Efficacy of SPN10(s) (with or without aromatic-cationic peptides) or conjugates in preventing ALF will be indicated by a reduction in the occurrence or severity of the ALF as indicated by the above markers, as compared to control subjects.

[4] = test system: Sprague-Dawley rats; assay: Example 56: diabetic retinopathy in STZ and HFD/STZ rats; assay type: in vivo, rat
Description: A rat model of diabetes will be established by combination of 6-week HFD and either 1) a low-dose STZ (30 mg/kg) injection, or 2) a single high dose of STZ (65 mg/kg) in Sprague-Dawley rats. See generally, Srinivasan, et al., Pharm. Res. 52(4):313-320 (2005). Controls will be maintained on normal rat chow (NRC). Treatment groups will be as follows: • Group A: 12 HFD/STZ peptide conjugates 10 mg/kg s.c • Group B: 12 HFD/STZ peptide conjugates 3 mg/kg s.c. • Group C: 12 HFD/STZ peptide conjugates 1 mg/kg s.c. • Group D: 10 HFD/STZ control vehicle. s.c. • Group E: 10 NRC control vehicle. s.c. • Group F: 12 HFD/STZ aromatic-cationic peptide (an equivalent molar dose of aromatic-cationic peptide based on concentration of the aromatic-cationic peptide administered in the 10 mg/kg s.c.q.d. peptide conjugate group) • Group G: 12 HFD/STZ aromatic-cationic peptide (an equivalent molar dose of aromatic-cationic peptide based on concentration of the aromatic-cationic peptide administered in the 3 mg/kg s.c.q.d. peptide conjugate group) • Group H: 12 HFD/STZ aromatic-cationic peptide (an equivalent molar dose of aromatic-cationic peptide based on concentration of the aromatic-cationic peptide administered in the 1 mg/kg s.c.q.d. peptide conjugate group) • Group I: 12 HFD/STZ SPN10 (an equivalent molar dose of SPN10 based on concentration of SPN10 administered in the 10 mg/kg s.c.q.d. peptide conjugate group) • Group J: 12 HFD/STZ SPN10 (an equivalent molar dose of SPN10 based on concentration of SPN10 administered in the 3 mg/kg s.c.q.d. peptide conjugate group) • Group K: 12 HFD/STZ SPN10 (an equivalent molar dose of SPN10 based on concentration of SPN10 administered in the 1 mg/kg s.c.q.d. peptide conjugate group). • Group L: SPN10(s) in combination with aromatic-cationic peptides (e.g., an equivalent molar dose of SPN10 based on the concentration of SPN10 administered in the 10 mg/kg s.c.q.d. peptide conjugate treatment group and an equivalent molar dose of aromatic-cationic peptide based on the concentration of aromatic-cationic peptide administered in the 10 mg/kg s.c.q.d. peptide conjugate treatment group) • Group M: SPN10(s) in combination with aromatic-cationic peptides (e.g., an equivalent molar dose of SPN10 based on the concentration of SPN10 administered in the 3 mg/kg s.c.q.d. peptide conjugate treatment group and an equivalent molar dose of aromatic-cationic peptide based on the concentration of aromatic-cationic peptide administered in the 3 mg/kg s.c.q.d. peptide conjugate treatment group) • Group N: SPN10(s) in combination with aromatic-cationic peptides (e.g., an equivalent molar dose of SPN10 based on the concentration of SPN10 administered in the 1 mg/kg s.c.q.d. peptide conjugate treatment group and an equivalent molar dose of aromatic-cationic peptide based on the concentration of aromatic-cationic peptide administered in the 1 mg/kg s.c.q.d. peptide conjugate treatment group)
Eyes will be harvested and subjects assessed for cataract formation, epithelial changes, integrity of the blood-retinal barrier, retinal microvascular structure, and retinal tight junction structure using methods known in the art.

[5] = test system: Sprague Dawley rats; assay: Renal ischemia/reperfusion, no-reflow zone in the kidney; assay type: in vivo, rat

N=C(N)NCCC[C@H](NC(=O)[C@@H](N)Cc1c[nH]c2ccccc12)C(=O)N[C@@H](Cc1c[nH]c2ccccc12)C(=O)N[C@@H](CCCCN)C(N)=O [SPN10, H-L-Trp-L-Arg-L-Trp-L-Lys-NH2] (H-WRWK-NH2)
cardiac stunning [1]: complete inhibition of cardiac stunning | coronary flow during reperfusion [1]: well-sustained throughout the reperfusion period | heart rate [1]: no decrease in heart rate | contractile force during the reperfusion period ([1]; 30 minutes perfusion, 30 minutes global ischemia): improved compared to untreated controls | ROS accumulation (DCF) [2]: reduce ROS accumulation | mitochondrial depolarization (TMRM) [2]: prevent mitochondrial depolarization | reduced liver function after toxic or surgical liver insult [3]: attenuate or prevent these effects | non-uniform distribution of tight junctions (claudin-5) along retinal vessels ([4]; HFD/STZ subjects): prevent, reverse, or attenuate this effect | retinal microvascular changes ([4]; STZ or HFD/STZ rats): reduce retinal microvascular changes | epithelial cellular changes ([4]; STZ rat model and HFD/STZ rat model): reduce epithelial cellular changes | inner blood-retinal barrier function ([4]; compared to control subjects): improved inner blood-retinal barrier function | cataract formation in the lenses of diabetic rats ([4]; rat, in vivo): prevention or reversal of cataract formation | anatomic zone of no-reflow in the kidney ([5]; 30 minutes before ischemia and before reperfusion): prevent or reduce | one or more of BUN, serum creatinine, and glomerular filtration rate ([5]; versus untreated control subjects): improve
